Test results taken from US20080032992A1, “New Pyridine Analogues V” (ASTRAZENECA AB, priority 2006, published 2008).

Molecular target: T1, P2Y12 receptor (Homo sapiens, UniProt Q9H244)
T1 construct: expressed in transfected cells; host or cells: CHO cells (membranes)
Assay: Functional inhibition of 2-Me-S-ADP induced P2Y12 signalling (35S-GTPγS binding, membranes from P2Y12 transfected CHO-cells)
Assay type: biochemical
Conditions: EC80 concentration of agonist 2-methyl-thio-adenosine diphosphate, 30° C. for 45 min
Protocol: Functional inhibition of the P2Y12 receptor can be measured by in vitro assays using cell membranes from P2Y12 transfected CHO-cells, the methodology is indicated below.
Functional inhibition of 2-Me-S-ADP induced P2Y12 signalling: 5 μg of membranes were diluted in 200 μl of 200 mM NaCl, 1 mM MgCl2, 50 mM HEPES (pH 7.4), 0.01% BSA, 30 μg/ml saponin and 10 μM GDP. To this was added an EC80 concentration of agonist (2-methyl-thio-adenosine diphosphate), the required concentration of test compound and 0.1 μCi ^35S-GTPγS. The reaction was allowed to proceed at 30° C. for 45 min. Samples were then transferred on to GF/B filters using a cell harvester and washed with wash buffer (50 mM Tris (pH 7.4), 5 mM MgCl2, 50 mM NaCl). Filters were then covered with scintillate and counted for the amount of ^35S-GTPγS retained by the filter. Maximum activity was that determined in the presence of the agonist and minimum activity in the absence of the agonist following subtraction of the value determined for non-specific activity. The effect of compounds at various concentrations was plotted according to the equation y=A+((B−A)/(1+((C/x)ˆD))) and IC50 estimated where
A is the bottom plateau of the curve i.e. the final minimum y value
B is the top of the plateau of the curve i.e. the final maximum y value
C is the x value at the middle of the curve. This represents the log EC50 value when A+B=100 […]

T1 sequence (Q9H244 whole entry): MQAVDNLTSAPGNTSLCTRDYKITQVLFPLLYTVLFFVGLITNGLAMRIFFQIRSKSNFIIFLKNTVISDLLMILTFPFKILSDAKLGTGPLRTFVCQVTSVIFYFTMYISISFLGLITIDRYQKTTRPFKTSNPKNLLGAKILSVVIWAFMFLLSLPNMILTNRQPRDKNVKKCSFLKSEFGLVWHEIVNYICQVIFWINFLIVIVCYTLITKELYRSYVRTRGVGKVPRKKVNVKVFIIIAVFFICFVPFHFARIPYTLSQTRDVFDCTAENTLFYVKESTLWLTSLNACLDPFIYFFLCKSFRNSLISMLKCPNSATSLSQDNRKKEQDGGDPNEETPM

SMILES	IC50
CCOC(=O)c1cc(C#N)c(N2CCN(Cc3cn(-c4ccccc4)nn3)CC2)nc1C [Example 2, Ethyl 5-cyano-2-methyl-6-{4-[(1-phenyl-1H-1,2,3-triazol-4-yl)methyl]piperazin-1-yl}nicotinate]	690 nM
CCOC(=O)c1cc(C#N)c(N2CCC(c3nnc(-c4ccccc4)[nH]3)CC2)nc1C [Example 3, Ethyl 5-cyano-2-methyl-6-[4-(5-phenyl-4-h-1,2,4-triazol-3-yl)piperidin-1-yl]nicotinate]	330 nM
